Patent US9420782B2, “Pesticidal composition in the form of aqueous emulsion” (Sumitomo Chemical Company, Limited, priority 2012, dated 2016)

Test: Retention rate of the agriculturally active ingredient after xenon light irradiation (film on glass petri dish)
Type: physicochemical
Conditions: xenon light (290 nm cutoff), 0.68 W/m^2 at 340 nm, 35° C., neat active ingredient air-dried on petri dish
Method: A method for the calculation of a retention rate of the agriculturally active ingredient defined above is more specifically as follows. First, 250 mg of the agriculturally active ingredient is dissolved in 50 mL of a solvent such as acetone, which can sufficiently dissolve the agriculturally active ingredient and also has high volatility, and 1 mL of the solution is added to a glass petri dish having a diameter of 6 cm using a one-mark pipette, spread entirely over the petri dish, and then air-dried at room temperature. The petri dish is covered with a lid made of quartz glass and then set in a weathering tester (manufactured by Q-Lab Corporation under the trade name of Q-SUN Xenon Accelerated Weathering Tester, Model Xe-3) equipped with a borosilicate filter (manufactured by Q-Lab Corporation under the trade name of Daylight-BB Optical Filter) attached thereto. After irradiation with xenon light under the conditions of an intensity at 340 nm of 0.68 W/m^2 and a temperature of 35° C. (35° C. as measured by an insulated black panel thermometer) for a predetermined time, the amount of the agriculturally active ingredient remaining on the petri dish is determined by a known determination method such as high-performance liquid chromatography. […]

- retention rate after irradiation with xenon light (8 hours): 93.1%
- retention rate after irradiation with xenon light (56 hours): 50.3%
SMILES: CNC(=O)C(OC)c1ccccc1COc1cc(C)ccc1C (stereo not drawn) [compound A, 2-[(2,5-dimethylphenoxy)methyl]-α-methoxy-N-methyl-benzeneacetamide]
